Results on 15 compounds are retold here after PubChem BioAssay (NCI).

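Values below derive from 48-hour exposures of cells grown in 96-well plates, with endpoints linearly interpolated between the two concentrations bracketing the appropriate inhibition level. GI50 is the concentration that inhibits growth by half. TGI denotes the concentration required for complete inhibition of growth.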

Some test systems named below: CAKI-1 renal; HCT-15 colon; MDA-MB-231 breast; MDA-N; NCI-H522 lung; NCI/ADR-RES ovarian; OVCAR-3 ovarian; SK-MEL-28 melanoma; SW-620 colon; SF-539 CNS.
What all share (test): NCI anticancer screen, dose series, 48 h

As to `Cc1ccc(N=N/C(=N/NC(=O)c2cc(Cl)ccc2C(=O)c2ccccc2)c2ccc(N(CCC#N)CCC#N)cc2C)cc1`, the TGI with CAKI-1 renal is 79.3 µM; with HCT-15 colon, 57.8 µM; in the experiment with MDA-MB-231 breast, 24.8 µM; in the experiment on MDA-N, more than 100 µM; in the experiment with NCI-H522 lung it was 19.9 µM; with NCI/ADR-RES ovarian, 62.1 µM. Further, the TGI in the experiment with OVCAR-3 ovarian was 16.4 µM; in the experiment with SK-MEL-28 melanoma, more than 100 µM; with SW-620 colon, more than 100 µM.

With `CCOC(=O)Cc1csc2[n+]1C(=O)/C(=C/c1cccc(OC)c1O)S2`, the TGI in the experiment on CAKI-1 renal, in the experiment on HCT-15 colon, in the experiment on MDA-MB-231 breast, with MDA-N, in the experiment on NCI/ADR-RES ovarian and in the experiment with OVCAR-3 ovarian was more than 100 µM in each case. In addition, the TGI in the experiment on SF-539 CNS, in the experiment with SK-MEL-28 melanoma and in the experiment with SW-620 colon was more than 100 µM in each case.

For the compound `CC(=O)Oc1cc2c(c3ncccc13)OC(C)(C)C2`, the TGI in the experiment with CAKI-1 renal worked out at 21.3 µM; in the experiment on HCT-15 colon, 46.5 µM; in the experiment with MDA-MB-231 breast it was 24.4 µM; in the experiment with MDA-N it was 10.9 µM; with NCI-H522 lung, 8.26 µM; with NCI/ADR-RES ovarian it was 23.9 µM. Further, the TGI in the experiment with OVCAR-3 ovarian was 55 µM; with SF-539 CNS, 26.9 µM; in the experiment with SK-MEL-28 melanoma, more than 100 µM; with SW-620 colon, more than 100 µM.

As to `CCCC(=O)O[C@H]1C=C2C[C@@]34SS[C@]5(CC6=C[C@H](OC(C)=O)[C@@H]7O[C@@H]7[C@H]6N5C3=O)C(=O)N4[C@@H]2[C@H]2O[C@H]21`, the TGI with CAKI-1 renal worked out at 1.09 µM; with HCT-15 colon it was 1.43 µM; in the experiment with MDA-MB-231 breast it was 0.246 µM; with MDA-N it was 0.0314 µM; in the experiment on NCI/ADR-RES ovarian, 0.442 µM; in the experiment on OVCAR-3 ovarian, 0.0314 µM. Also, the TGI with SF-539 CNS stood at 0.932 µM; in the experiment on SK-MEL-28 melanoma, 0.235 µM; in the experiment on SW-620 colon, 0.671 µM.

With `O=C(Nc1c(C(F)(F)F)cc(-c2ccccc2)[nH]c1=O)N1CCOCC1`, the TGI in the experiment on CAKI-1 renal, in the experiment on HCT-15 colon, in the experiment with MDA-MB-231 breast, with MDA-N, in the experiment on NCI-H522 lung and in the experiment on NCI/ADR-RES ovarian was more than 100 µM each time. Further, the TGI in the experiment on OVCAR-3 ovarian, with SK-MEL-28 melanoma and in the experiment on SW-620 colon was more than 100 µM throughout.

Turning to `Cc1ccc2c(sc(-c3ccc4c(c3)sc(-c3ccc5c(c3)sc(-c3ccc(N(C)C)cc3)[n+]5C)[n+]4C)[n+]2C)c1S(=O)(=O)O` (tested in a mixture with another compound), the TGI with HCT-15 colon, with MDA-MB-231 breast, in the experiment on MDA-N, in the experiment with NCI-H522 lung, in the experiment on NCI/ADR-RES ovarian and in the experiment on OVCAR-3 ovarian was more than 100 µM each time. The TGI in the experiment with SF-539 CNS, in the experiment with SK-MEL-28 melanoma and in the experiment on SW-620 colon was more than 100 µM in each case.

As to `CC(C)(C)OC(=O)N(O)CCCn1cnc2c(N)ncnc21`, the TGI in the experiment on HCT-15 colon, in the experiment with MDA-MB-231 breast, with MDA-N, in the experiment on NCI-H522 lung, with NCI/ADR-RES ovarian and in the experiment with OVCAR-3 ovarian was more than 100 µM each time. Besides, the TGI in the experiment on SF-539 CNS, with SK-MEL-28 melanoma and in the experiment with SW-620 colon was more than 100 µM in each case.

For `CCOC(=O)c1nc2ccccc2nc1Nc1ccc(OC)c(OC)c1`, the TGI in the experiment with CAKI-1 renal, in the experiment on HCT-15 colon, in the experiment with MDA-MB-231 breast, in the experiment on MDA-N, in the experiment on NCI-H522 lung and with NCI/ADR-RES ovarian was more than 100 µM each time. The TGI in the experiment with OVCAR-3 ovarian, in the experiment on SF-539 CNS and in the experiment with SK-MEL-28 melanoma was more than 100 µM throughout.

For `OC[C@]1(n2nc3ccccc3n2)OC[C@@H]1c1ccccc1`, the TGI was more than 100 µM in the experiment on CAKI-1 renal; more than 100 µM with HCT-15 colon; more than 100 µM with MDA-MB-231 breast; more than 100 µM with MDA-N; 58.2 µM in the experiment on NCI-H522 lung; more than 100 µM in the experiment on NCI/ADR-RES ovarian. Further, the TGI was 71.2 µM with OVCAR-3 ovarian, 69.2 µM in the experiment with SF-539 CNS and more than 100 µM with SK-MEL-28 melanoma.

`C/C=C\C(CC(=O)NCCC1CN(S(=O)(=O)C(F)(F)F)c2ccccc21)CC(=O)OC` (centres undefined): the TGI was more than 100 µM with CAKI-1 renal; more than 100 µM in the experiment with HCT-15 colon; more than 100 µM in the experiment on MDA-MB-231 breast; more than 100 µM in the experiment with MDA-N; 52 µM with NCI-H522 lung; more than 100 µM in the experiment on NCI/ADR-RES ovarian. For the same compound, the TGI in the experiment on OVCAR-3 ovarian, with SK-MEL-28 melanoma and in the experiment on SW-620 colon was more than 100 µM throughout.

For `CCOC(=O)c1c(C)cc(=O)n2c1[nH]c1ccccc12`, the TGI in the experiment with CAKI-1 renal was 50.9 µM; in the experiment on HCT-15 colon it was more than 100 µM; in the experiment with MDA-MB-231 breast, more than 100 µM; in the experiment with MDA-N, more than 100 µM; with NCI/ADR-RES ovarian it was more than 100 µM; in the experiment with OVCAR-3 ovarian, more than 100 µM. Also, the TGI in the experiment with SF-539 CNS, in the experiment with SK-MEL-28 melanoma and in the experiment on SW-620 colon was more than 100 µM throughout.

For `CCN(CC)CCN1C(=O)c2c(c(-c3ccccc3)c3ccccc3c2-c2ccccc2)C1=O`, the TGI in the experiment with CAKI-1 renal, with HCT-15 colon, in the experiment on MDA-MB-231 breast, in the experiment with MDA-N, with NCI-H522 lung and in the experiment with NCI/ADR-RES ovarian was more than 100 µM throughout. Further, the TGI with SF-539 CNS and in the experiment with SW-620 colon was more than 100 µM in each case.

As to `O=C(Nc1nn(C(=O)c2ccc(Cl)cc2)c(=O)s1)c1ccc(Cl)cc1`, the TGI in the experiment on CAKI-1 renal, with HCT-15 colon, in the experiment on MDA-MB-231 breast, with MDA-N, in the experiment on NCI-H522 lung and with NCI/ADR-RES ovarian was more than 100 µM each time. The TGI with OVCAR-3 ovarian, in the experiment on SK-MEL-28 melanoma and in the experiment with SW-620 colon was more than 100 µM each time.

Consider `C/C(=N\Nc1nc2ccccc2n1C)c1cnccn1`, for which the TGI with CAKI-1 renal is more than 100 µM; with HCT-15 colon, more than 100 µM; in the experiment with MDA-MB-231 breast, 71.9 µM; with MDA-N, more than 100 µM; in the experiment with NCI-H522 lung, more than 35.8 µM; with NCI/ADR-RES ovarian, 3.14 µM. The TGI is 2.75 µM in the experiment with OVCAR-3 ovarian, more than 100 µM in the experiment on SF-539 CNS and more than 100 µM in the experiment with SW-620 colon.

As to `Nc1nc(Cl)cc(OCC2(CO)CC(OCc3ccccc3)C2)n1` (centres undefined), the GI50 with CAKI-1 renal is 48.2 µM; in the experiment with HCT-15 colon it was 83.8 µM; with MDA-MB-231 breast, 26.2 µM; with MDA-N, 64.4 µM; in the experiment with NCI-H522 lung it was 47.2 µM; in the experiment on NCI/ADR-RES ovarian, 45.8 µM. In addition, the figures for the GI50 in the experiment with OVCAR-3 ovarian and in the experiment with SK-MEL-28 melanoma were 47.1 µM and 96.9 µM, respectively.
